Patent US20150004126A9, “COMPOSITIONS” (GIVAUDAN S.A., priority 2011, published 2015)

How the values were obtained:
[1] = molecular target: N-alpha acyl glutamine aminoacylase (Corynebacterium striatum, UniProt Q8GGD4); assay: Malodour generated on cloth with enzyme and HMHA sweat precursor, assessed by a panel; type: biochemical, Corynebacteria; conditions: 0.1% compound in respective test products (un-fragranced base, fragranced base, Febreze) on polycotton cloth with HMHA precursor and enzyme, 37° C. 30 min; panel scale 0-10; vs untreated control
Sequence of N-alpha acyl glutamine aminoacylase (Q8GGD4 whole entry): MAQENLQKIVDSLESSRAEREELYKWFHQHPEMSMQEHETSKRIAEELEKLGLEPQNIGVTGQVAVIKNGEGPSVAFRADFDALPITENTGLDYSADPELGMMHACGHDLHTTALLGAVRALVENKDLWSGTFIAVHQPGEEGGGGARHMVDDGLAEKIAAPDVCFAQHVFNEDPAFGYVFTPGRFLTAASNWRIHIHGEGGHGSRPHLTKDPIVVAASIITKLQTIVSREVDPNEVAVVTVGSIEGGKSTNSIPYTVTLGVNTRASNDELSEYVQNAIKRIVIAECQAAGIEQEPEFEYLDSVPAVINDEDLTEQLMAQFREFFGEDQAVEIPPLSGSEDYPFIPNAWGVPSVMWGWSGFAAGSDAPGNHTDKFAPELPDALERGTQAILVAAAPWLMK
Source text: The objective of the study is to measure the effectiveness of malodour-counteracting compounds for use in the present invention at reducing malodour generated on cloth in the presence of the enzyme N-alpha acyl glutamine aminoacylase, and the sweat precursor for the malodorous fatty acid 3-methyl-3-hydroxy-hexanoic acid (HMHA). The aim is to achieve a significant reduction in malodour on cloth against: • a) an untreated fabric • b) a marketed fabric freshener, namely Spring & Renewal Febreze®.
140 μg of odourless precursor for HMHA (equivalent to 15 minutes of physical exercise) is dissolved in 125 μl of 12% ethanol/88% water and applied to 12.5 cm2 polycotton (40/60 mix) cloth in a 30 ml Beatson jar.
The cloth was allowed to dry completely in a 40° C. oven before checking for residual malodour.
Thereafter, the cloth was moistened with 125 μl of a solution containing 0.33 μg/ml of the enzyme N-α-acyl glutamine aminoacylase in 50 mM phosphate buffer pH 6 and the treated cloth was allowed to incubate in a glass jar at 37° C. for 30 minutes.
Thereafter a few drops of a 10% concentration of HCL were added to protonate the acids.
Malodour was assessed by a panel on a scale of 0 (nothing)-10 (very strong)
Malodour precursor was applied to cloth as described above and the cloth allowed to dry in an oven at 40° C.
125 μl of each of the following solutions was applied on to polycotton cloth already containing the precursor and allowed to dry in a 40° C. oven:
0.1% of the Compounds (I), (II), and (III) defined above (hereinafter referred to generally as “compound”), dissolved in an un-fragranced in-house fabric refresher base 0.1% of each compound dissolved in a fragranced fabric refresher base fragranced with a 0.05% of a proprietary fragrance having a floral-green-aldehyde odour (hereinafter “fragrance”).
0.1% of each inhibitor dissolved in a Febreze(r) Market product (Spring & Renewal) […]

[2] = Solubility in a cyclodextrin-containing fabric refreshener; type: physicochemical; conditions: at 0.1%

Structure (SMILES)	malodour reduction compared with the control [1]	solubility in a cyclodextrin-containing fabric refreshener [2]
CCCCC(CC)CNC(=O)N[C@@H](CCC(N)=O)C(=O)O (stereo partly drawn) [Compound III]	clear and significant malodour reduction	soluble
CC(CCOC(=O)NC(CCC(N)=O)C(=O)O)CCc1ccccc1 (stereo not drawn) [Compound II]	clear and significant malodour reduction	soluble
NC(=O)CC[C@H](NC(=O)OCc1ccccc1)C(=O)O [Compound I]	clear and significant malodour reduction	soluble
